These results are taken from ChEMBL document CHEMBL5532640, “Medicinal chemistry strategies targeting NLRP3 inflammasome pathway: A recent update from 2019 to mid-2023” (Eur J Med Chem, 2023).

The nature of series [1]: Inhibition of LPS/nigericin induced LDH release in mouse J774.A1 cells. It is filed as functional, cell-based.
Series [2] has as its target T1, NACHT, LRR and PYD domains-containing protein 3 (Homo sapiens, UniProt Q96P20). Nature of the series: Inhibition of NLRP3 in human THP-1 cells assessed as reduction in LPS/ATP induced IL-1beta release at 10 uM preincubated with LPS for 4 hrs followed by compound addition for 1 hr prior to ATP stimulation for 1.5 hrs by ELISA relative to control. It counts as cell-based. The following applies: time 2.5 hrs. For orientation: ELISA stands for enzyme-linked immunosorbent assay.

Series [3] deals with T2, NACHT, LRR and PYD domains-containing protein 3 (Mus musculus, UniProt Q8R4B8). Nature of the series: Inhibition of NLRP3 in mouse BMDMs assessed as reduction in LPS/ATP-induced IL-1beta release preincubated for 30 mins in presence of LPS followed by ATP addition and measured after 1 hr by ELISA. It counts as cell-based, BMDM.
T2 sequence (Q8R4B8 whole entry, the tested form may be a part): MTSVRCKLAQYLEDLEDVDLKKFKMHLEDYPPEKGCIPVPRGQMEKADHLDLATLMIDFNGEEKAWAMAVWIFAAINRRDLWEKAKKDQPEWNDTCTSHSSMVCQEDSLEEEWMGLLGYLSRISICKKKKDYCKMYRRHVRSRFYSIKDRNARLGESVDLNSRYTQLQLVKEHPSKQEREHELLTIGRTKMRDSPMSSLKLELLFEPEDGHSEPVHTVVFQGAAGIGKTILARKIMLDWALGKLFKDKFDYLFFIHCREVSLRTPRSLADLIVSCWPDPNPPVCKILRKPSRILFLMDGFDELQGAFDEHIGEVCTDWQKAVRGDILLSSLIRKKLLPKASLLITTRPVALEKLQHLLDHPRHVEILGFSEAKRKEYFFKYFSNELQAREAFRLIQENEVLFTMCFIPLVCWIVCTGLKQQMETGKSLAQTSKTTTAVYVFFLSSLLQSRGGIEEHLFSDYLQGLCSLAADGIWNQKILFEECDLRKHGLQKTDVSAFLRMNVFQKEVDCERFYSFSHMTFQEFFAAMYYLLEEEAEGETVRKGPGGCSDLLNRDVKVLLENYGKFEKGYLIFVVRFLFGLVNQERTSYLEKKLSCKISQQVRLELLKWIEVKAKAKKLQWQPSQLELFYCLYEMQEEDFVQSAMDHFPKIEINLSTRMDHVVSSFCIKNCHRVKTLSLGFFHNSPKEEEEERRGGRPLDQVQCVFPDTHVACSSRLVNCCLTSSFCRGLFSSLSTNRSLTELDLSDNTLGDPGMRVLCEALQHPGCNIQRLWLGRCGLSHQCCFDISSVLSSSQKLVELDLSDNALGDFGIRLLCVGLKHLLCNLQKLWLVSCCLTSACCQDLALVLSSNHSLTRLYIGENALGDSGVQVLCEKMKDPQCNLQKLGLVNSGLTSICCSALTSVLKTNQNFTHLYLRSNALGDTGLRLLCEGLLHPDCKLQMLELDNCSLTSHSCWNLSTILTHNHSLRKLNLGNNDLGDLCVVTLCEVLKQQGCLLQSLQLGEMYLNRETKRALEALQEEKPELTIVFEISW
Series [4] has as its target T2, NACHT, LRR and PYD domains-containing protein 3. Nature of the series: Inhibition of NLRP3 inflammasome in mouse J774.A1 cells assessed as decrease in LPS/nigericin induced IL-1beta level preincubated with LPS for 4 hrs followed by compound addition for 1 hr in presence nigericin by ELISA. It counts as cell-based.
Series [5] can be described thus: Cmax in human at 1000 mg per day, po administered for 8 consecutive days. The note with it: in vivo. It counts as ADME, organism-based.
In series [6] the target is T1, NACHT, LRR and PYD domains-containing protein 3. Nature of the series: Inhibition of NLRP3 inflammasome in human MDM cells assessed as reduction in LPS/nigericin induced IL-1beta secretion […] prior to nigericin addition and measured after 5 hrs by ELISA. It counts as cell-based.
In series [7] the target is T2, NACHT, LRR and PYD domains-containing protein 3. Nature of the series: Inhibition of NLRP3 inflammasome in mouse BMDMs assessed as reduction in IL-1beta activity preincubated with LPS for 4 hrs followed by compound addition for 30 mins prior to nigericin addition and measured after 1 hr by ELISA. It counts as cell-based, BMDM.
Series [8] can be described thus: Solubility of the compound at pH 1.5. It counts as physicochemical. The note with it: buffer.
Series [9] addresses T2, NACHT, LRR and PYD domains-containing protein 3. Nature of the series: Inhibition of NLRP3 in mouse J774.A1 cells assessed as reduction in LPS/ATP induced IL-1beta secretion. It counts as cell-based.
The nature of series [10]: Inhibition of porcine whole blood NLRP3 assessed as reduction in LPS/ATP induced IL-1beta secretion preincubated for 3 hrs in presence of LPS followed by ATP addition and measured after 1 hr by immunoassay. The note with it: Sus scrofa.
Series [11] can be described thus: Cytotoxicity against mouse J774.A1 cells. It is filed as toxicity, cell-based. The note with it: read-out: TC50 (the source's name).
Series [12] is described as follows: Half life in C57BL/6 mouse at 20 mg/kg, po. It counts as ADME, organism-based. The note with it: in vivo.
Series [13] in a line: Stability in human liver microsomes assessed as compound remaining after 60 mins. It is filed as ADME, Microsome. The note with it: read-out: Stability. For orientation: Liver microsomes are a subcellular fraction often used to study metabolism.
The nature of series [14]: Stability in mouse liver microsomes assessed as compound remaining after 60 mins. It is filed as ADME, Microsome. The following applies: read-out: Stability.
In series [15] the target is T1, NACHT, LRR and PYD domains-containing protein 3. Nature of the series: Inhibition of NLRP3 in LPS/ATP induced human THP1 cells. It counts as cell-based, THP-1.
Series [16] deals with T2, NACHT, LRR and PYD domains-containing protein 3. Nature of the series: Inhibition of NLRP3 in LPS/ATP induced mouse J774.A1 cells. It is filed as cell-based.
Series [17] shares this target. Nature of the series: Covalent inhibition of NLRP3 in mouse BMDMs assessed as reduction in LPS/nigericin induced IL-1beta secretion pretreated with LPS for 3 hrs followed by compound addition for 30 mins prior to nigericin addition and measured after 30 mins by ELISA. It counts as cell-based, BMDM.

In brackets after ≈: the same amount, converted by molar mass.

T1 sequence (Q96P20 whole entry, the tested form may be a part): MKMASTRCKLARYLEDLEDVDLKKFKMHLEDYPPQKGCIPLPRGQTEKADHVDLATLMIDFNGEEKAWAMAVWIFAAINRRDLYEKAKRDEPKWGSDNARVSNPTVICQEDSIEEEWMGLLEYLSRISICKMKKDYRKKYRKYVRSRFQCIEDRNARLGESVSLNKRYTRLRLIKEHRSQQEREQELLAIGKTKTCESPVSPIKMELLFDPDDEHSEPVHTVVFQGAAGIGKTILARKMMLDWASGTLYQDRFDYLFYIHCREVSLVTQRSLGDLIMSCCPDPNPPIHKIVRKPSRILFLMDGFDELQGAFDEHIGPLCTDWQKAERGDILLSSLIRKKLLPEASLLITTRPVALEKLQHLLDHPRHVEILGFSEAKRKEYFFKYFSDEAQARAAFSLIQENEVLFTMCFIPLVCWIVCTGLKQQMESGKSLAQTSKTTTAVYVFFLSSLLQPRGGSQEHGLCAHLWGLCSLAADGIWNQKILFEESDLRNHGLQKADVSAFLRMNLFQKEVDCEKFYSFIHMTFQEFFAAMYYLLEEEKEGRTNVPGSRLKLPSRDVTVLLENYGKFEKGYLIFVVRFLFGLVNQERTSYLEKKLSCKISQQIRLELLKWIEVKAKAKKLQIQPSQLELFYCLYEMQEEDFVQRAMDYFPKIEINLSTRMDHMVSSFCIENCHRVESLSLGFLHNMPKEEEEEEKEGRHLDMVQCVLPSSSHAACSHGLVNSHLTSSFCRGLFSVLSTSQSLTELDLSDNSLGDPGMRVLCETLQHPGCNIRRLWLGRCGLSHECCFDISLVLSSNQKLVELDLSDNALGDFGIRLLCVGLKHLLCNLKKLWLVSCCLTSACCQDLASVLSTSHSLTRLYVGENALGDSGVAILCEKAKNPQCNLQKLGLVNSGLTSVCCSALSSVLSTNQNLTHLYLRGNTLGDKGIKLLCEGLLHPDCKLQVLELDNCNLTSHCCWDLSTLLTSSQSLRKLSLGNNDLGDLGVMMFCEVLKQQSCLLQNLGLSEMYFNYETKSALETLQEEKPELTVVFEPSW

`CO[C@@H]1C2=C(C(=O)C(=O)C(C(C)C)=C2)[C@@]2(C)CCCC(C)(C)[C@@H]2[C@H]1O` came in with a concentration for half-maximal inhibition (IC50) in series [1] of 230 nM. As for `CC(=O)O[C@H]1C=C2C=C(C(C)C)C(=O)C(O)=C2[C@@]2(C)CCCC(C)(C)[C@H]12`, in series [1], the IC50 turned out to be 230 nM.

In series [1], `CC1(C)CCC[C@@]2(C)C1=C(O)C(=O)c1cc(C(C)(C)O)c(O)c(O)c12` registered an IC50 of 230 nM.

As to `C=C(Cc1ccccc1Cl)C(=O)N1CCC(n2c(=O)[nH]c3ccccc32)CC1`, the inhibition in series [2] was determined as 14.4%.

Consider `CC(C)n1ccc(S(=O)(=O)NC(=O)Nc2c3c(cc4c2CCC4)CCC3)n1` [INZOMELID], for which the half-inhibitory concentration (IC50) in series [3] is 16 nM. Turning to `O=C(CCc1ccccc1Cl)N1CCC(n2c(=O)[nH]c3ccccc32)CC1`, in series [2], the inhibition turned out to be 10.3%. Turning to `CC1(C)OC(=O)C=C[C@]2(C)[C@H]3CC[C@@]4(C)[C@H](C5=CC(=O)NC5=O)C[C@H]5O[C@]54[C@]3(C)OC(=O)C[C@@H]12`, the IC50 in series [4] amounted to 3200 nM.

In the case of `O=C(CCc1ccccc1Cl)NCCn1c(=O)[nH]c2ccccc21`, in series [2], the inhibition was 20.3%. Consider `CCO[C@@H]1C[C@H]2C(C)(C)CCC[C@]2(C)C2=C1C=C(C(C)C)C(=O)C2=O`, for which the IC50 in [1] is 230 nM. As for `O=C(O)Cn1c(=O)n(C(=O)CCc2ccccc2Cl)c2ccccc21`, in series [2], the inhibition stood at 21.1%. In turn, `CS(=O)(=O)CCC#N` showed a peak concentration (Cmax) in series [5] of 41400 ng/mL. Also, the IC50 in [6] worked out at 1000 nM. Turning to `CC1(C)OC(=O)C=C[C@@]2(C)[C@H]1CC(=O)[C@@]1(C)C3=CC[C@@H](C4=CC(=O)O[C@@H]4O)[C@]3(C)CC[C@@H]12`, the IC50 in series [4] was 3200 nM. Turning to `N#C/N=C(\NCc1ccccc1)NC1CCN(C(=O)CCc2ccccc2Cl)CC1`, the inhibition in [2] was found to be 25.2%. Regarding `CC1=C(O)C(=O)C=C2C1=CC=C1[C@@]2(C)[C@@H](Br)C[C@@]2(C)[C@@H]3C[C@@H](C)C(=O)C[C@]3(C)CC[C@]12C`, the half-inhibitory concentration (IC50) in series [7] came to 190 nM. Compound `CN[C@@H]1COc2c(S(=O)(=O)NC(=O)Nc3c4c(cc5c3CCC5)CCC4)cnn2C1` registered a solubility in series [8] of 5760 µg/mL (≈ 13.3 mM). Regarding `CCOCCOc1ccc(/C=C/c2cc(OC)cc(OC)c2/C=C/[N+](=O)[O-])cc1`, the IC50 in [9] is 2410 nM. The compound `CC(C)C1=CC2=C[C@H](O)[C@H]3C(C)(C)CCC[C@]3(C)[C@@]2(O)C(=O)C1=O` gave an IC50 in series [1] of 230 nM.

Turning to `COc1c(O)cc2c(c1C)C(=O)C=C1[C@@]2(C)CC[C@@]2(C)[C@@H]3C[C@@H](C)C(=O)[C@@H](O)[C@]3(C)CC[C@]12C`, in series [7], the IC50 was 1150 nM. Regarding `CCN1CCC(S(=O)(=O)NC(=O)Nc2c3c(cc4c2CCC4)CCC3)CC1` [SELNOFLAST], the IC50 in series [10] worked out at 350 nM.

Consider `Cc1ccc(S(=O)(=O)/C=C/C#N)cc1`, for which the CC50 in series [11] is 6400 nM. Compound `CC(C)(O)c1coc(S(=O)(=O)NC(=O)Nc2c3c(cc4c2CCC4)CCC3)c1` had a half-life in [12] of 3.27 h. Moreover, the remaining at 1 h in [13] and in series [14] was more than 70% in each case. For the compound `C=C1C(=O)[C@]23[C@H](O)[C@H]1CC[C@H]2[C@@]12CO[C@]3(O)[C@@H](O)[C@@H]1C(C)(C)CC[C@@H]2O` [ORIDONIN], in series [15], the IC50 is 5180 nM.

For the compound `CC(=O)O[C@H]1[C@@H](OC(C)=O)[C@@]2(C)C3=CC[C@@H](C4=CC(=O)O[C@@H]4O)[C@]3(C)CC[C@@H]2[C@@]2(C)C=CC(=O)OC(C)(C)[C@H]12`, the IC50 in series [4] was 3200 nM.

`O=C(/C=C/S(=O)(=O)c1ccccc1Cl)OCCc1ccccc1`: the CC50 in series [11] was 41800 nM. In series [16], this compound showed an IC50 of 920 nM. With `NS(=O)(=O)c1ccc(CCNC(=O)/C=C/S(=O)(=O)c2ccccc2Cl)cc1`, the CC50 in series [11] came out at 27500 nM. For the same compound, in [16], the IC50 is 1830 nM.

On to `O=C(CBr)NCc1ccc(C(F)(F)F)cc1`, for which the IC50 in series [17] amounted to 183 nM.

For the compound `CC(=O)O[C@@H]1C[C@H]2C(C)(C)OC(=O)C=C[C@]2(C)[C@H]2CC[C@]3(C)C(=CC[C@H]3C3=CC(=O)O[C@@H]3O)[C@@]21C`, the 50% inhibitory concentration (IC50) in series [4] came out at 3200 nM. With `CCO[C@H]1C[C@H]2C(C)(C)CCC[C@]2(C)C2=C1C=C(C(C)C)C(=O)C2=O`, the concentration for half-maximal inhibition (IC50) in [1] is 230 nM.

As a reminder, the IC50 is the midpoint of a concentration-inhibition curve. One may read the inhibition as how much of the control response was suppressed. What is called Cmax is the maximum level reached in the sampled fluid or tissue. As a reminder, the solubility is the concentration that dissolves in the medium under given conditions. A lower solubility goes with little dissolved substance. By half-life is commonly meant the time in which the quantity being followed falls by half. Low readings indicate fast loss, high ones slow loss.
